This is an account of results in the NIST ThermoML archive (doi:10.1021/je0601513).

Structures are written as SMILES. Numbers after ± are expanded uncertainties.

The conditions of data set [1]: 101.33 kPa, Liquid; for viscosity: Capillary tube (Ostwald / Ubbelohde) method.
Data set [2] can be described thus: refractive index (Na D-line) (dimensionless). Particulars: 101.33 kPa, Liquid, Standard Abbe refractometry.
Data set [3] is described as follows: molar heat capacity at constant pressure. As to conditions: 101.33 kPa, Liquid, Small sample (50 mg) DSC.

Turning to `CCCO` [propan-1-ol], the mass density in data set [1] (288.15 K) is listed as 807.51 ± 0.28 kg/m3; in data set [1] (298.15 K), 799.54 ± 0.29 kg/m3; in data set [1] (308.15 K) it was 791.41 ± 0.3 kg/m3. Further, the viscosity stood at 2.498 ± 0.028 mPa·s in data set [1] (288.15 K), 1.952 ± 0.022 mPa·s in data set [1] (298.15 K) and 1.564 ± 0.018 mPa·s in data set [1] (308.15 K). The refractive index in data set [2] (288.15 K) was 1.3893 ± 0.0007; in data set [2] (298.15 K), 1.3837 ± 0.0006; in data set [2] (308.15 K) it was 1.3795 ± 0.0005. Also, the “molar heat capacity at constant pressure” value in data set [3] (288.15 K) is reported as 139 ± 2 J/K/mol; in data set [3] (293.15 K), 142.3 ± 2.2 J/K/mol; in data set [3] (298.15 K) it was 144.9 ± 2.2 J/K/mol; in data set [3] (303.15 K), 148.2 ± 2.3 J/K/mol; in data set [3] (308.15 K), 151 ± 2.3 J/K/mol; in data set [3] (313.15 K), 153.7 ± 2.4 J/K/mol. Besides, the “molar heat capacity at constant pressure” value in data set [3] (318.15 K) is listed as 157.1 ± 2.4 J/K/mol; in data set [3] (323.15 K), 160.1 ± 2.5 J/K/mol; in data set [3] (328.15 K), 164.5 ± 2.6 J/K/mol; in data set [3] (333.15 K), 167.8 ± 2.6 J/K/mol.
Take `C[S+](C)[O-]` [dimethyl sulfoxide]: the figures for the mass density in data set [1] (288.15 K), in data set [1] (298.15 K) and in data set [1] (308.15 K) were 1105.39 ± 0.47 kg/m3, 1095.36 ± 0.45 kg/m3 and 1085.31 ± 0.43 kg/m3, respectively. Also, the viscosity worked out at 2.473 ± 0.029 mPa·s in data set [1] (288.15 K), 1.989 ± 0.023 mPa·s in data set [1] (298.15 K) and 1.644 ± 0.019 mPa·s in data set [1] (308.15 K). Further, the refractive index in data set [2] (288.15 K) was found to be 1.4835 ± 0.0007; in data set [2] (298.15 K) it was 1.4778 ± 0.0006; in data set [2] (308.15 K) it was 1.473 ± 0.0006. The “molar heat capacity at constant pressure” value worked out at 146.8 ± 2.3 J/K/mol in data set [3] (288.15 K), 152.4 ± 2.4 J/K/mol in data set [3] (298.15 K) and 154.6 ± 2.4 J/K/mol in data set [3] (308.15 K).
